This is an account of results in PMC8848508 (ACS Central Science, 2022).

Assay [1] has as its system SARS-CoV-2. Particulars: read-out: antiviral EC50; genomic RNA quantification; cited from earlier work.
The test system of assay [2] is SARS-CoV-2. Particulars: read-out: antiviral EC50, primary CPE assay, cited from earlier work.
For assay [3], the system named is SARS-CoV-2. Particulars: read-out: antiviral EC50; cited from earlier work.
Assay [4] deals with SARS-CoV-2 M^Pro (Severe acute respiratory syndrome coronavirus 2, UniProt P0DTD1). The format is biochemical. Particulars: at 16 μM inhibitor.

Where two headings read alike, the source gives them in different places.

For `CCCCCCNC(=O)n1cc(F)c(=O)[nH]c1=O` [carmofur], the EC50 (commonly the concentration giving half of the maximal effect) in assay [1] was more than 100000 nM.

`CC(C)(C)NC(=O)N[C@H](C(=O)N1C[C@H]2[C@@H]([C@H]1C(=O)NC(CC1CCC1)C(=O)C(N)=O)C2(C)C)C(C)(C)C` (some centres unmarked) [boceprevir]: the EC50 in assay [2] was 1310 ± 580 nM; in assay [3] it was 15600 nM.

On to `CCN(CC)CCCC(C)Nc1ccnc2cc(Cl)ccc12` (centres unmarked) [chloroquine], for which the “M^Pro retained activity” value in assay [4] is recorded as 84%.

`CC(C)COCC(CN(Cc1ccccc1)c1ccccc1)N1CCCC1` (centres unmarked) [bepridil]: the half-maximal effective concentration (EC50) in assay [2] (ACE2+ A549 cells) is 460 nM.
